# Where two headings read alike, the source gives them in different places.
# Legend:
# Type in all cases: cell-based
# H. influenzae ATCC 49247 = experiment: MIC (broth microdilution or agar dilution, CLSI)
# Procedure, shortened: (§1)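 Isolates other than streptococci and anaerobes, which had their own procedures, were grown overnight at 35° C on tryptic soy agar with 5% sheep blood. Suspensions were then diluted to a final inoculum of 5×10^5 CFU/mL in broth microdilution wells.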
# E. coli LptD = experiment: MIC (broth microdilution or agar dilution, CLSI); conditions: Escherichia coli, E. coli HAV#040; LptD; read-out: MIC
# Procedure, shortened: as §1
# E. faecalis ATCC 29212 = experiment: MIC (broth microdilution or agar dilution, CLSI)
# Procedure, shortened: as §1
# S. aureus ATCC 29213 = experiment: MIC (broth microdilution or agar dilution, CLSI)
# Procedure, shortened: as §1
# S. pyogenes ATCC 19615 = experiment: MIC (broth microdilution or agar dilution, CLSI)
# Procedure, shortened: as §1
# E. coli ATCC 25922 = experiment: MIC (broth microdilution or agar dilution, CLSI)
# Procedure, shortened: as §1
# K. pneumoniae ATCC 10031 = experiment: MIC (broth microdilution or agar dilution, CLSI)
# Procedure, shortened: as §1
# S. pneumoniae ATCC 49619 = experiment: MIC (broth microdilution or agar dilution, CLSI)
# Procedure, shortened: as §1
# E. coli ΔTolC = experiment: microbe, parasite or virus in culture; conditions: Escherichia coli, E. coli HAV#038; ΔTolC
# Procedure, shortened: as §1
# S. aureus MP-549 msrA = experiment: microbe, parasite or virus in culture
# Procedure, shortened: as §1
# C. difficile ATCC 700057 = experiment: MIC (broth microdilution or agar dilution, CLSI)
# Procedure, shortened: (§2)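 CLSI MIC, broth microdilution or agar dilution; compound 128-0.06 μg/mL, 2.5% DMSO final; triplicate. Anaerobes (e.g. clostridia) and streptococci run by specialized procedures. Other strains: overnight 35° C on blood agar, CaMHB, 0.5 McFarland, inoculum 5×10^5 CFU/mL.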
# B. fragilis ATCC 25285 = experiment: MIC (broth microdilution or agar dilution, CLSI)
# Procedure, shortened: as §2
# S. aureus MMX 3035 cErmA = experiment: MIC (broth microdilution or agar dilution, CLSI); conditions: S. aureus MMX 3035 cErmA
# Procedure, shortened: as §1
# [1] = system: S. pyogenes MMX 946; cErmB; experiment: MIC (broth microdilution or agar dilution, CLSI); conditions: S. pyogenes MMX 946, cErmB
# Procedure, shortened: as §1
# [2] = system: E. faecalis MMX 847; cErmB; experiment: MIC (broth microdilution or agar dilution, CLSI); conditions: E. faecalis MMX 847, cErmB
# Procedure, shortened: as §1
# [3] = system: S. pneumoniae MMX 3028 cErmB; experiment: MIC (broth microdilution or agar dilution, CLSI); conditions: S. pneumoniae MMX 3028 cErmB
# Procedure, shortened: as §1
# E. coli MP-9 ΔTolC = experiment: MIC (broth microdilution or agar dilution, CLSI)
# Procedure, shortened: as §1
# [4] = system: S. pneumoniae MMX 3031 cMefA; experiment: MIC (broth microdilution or agar dilution, CLSI); conditions: S. pneumoniae MMX 3031 cMefA
# Procedure, shortened: as §1
# S. aureus BAA 977 iErmA = experiment: microbe, parasite or virus in culture
# Procedure, shortened: as §1
# [5] = system: E. coli MP-74 LptD mutant; experiment: MIC (broth microdilution or agar dilution, CLSI)
# Procedure, shortened: as §2
# C. scindens ATCC 35704 = experiment: MIC (broth microdilution or agar dilution, CLSI); conditions: C. scindens ATCC 35704
# Procedure, shortened: as §2
# [6] = Staphylococcus aureus, MMX3035CERMA, read-out: MIC
# [7] = Streptococcus pyogenes, read-out: MIC
# [8] = Haemophilus influenzae, ATCC49247, H. influenzae ATCC 49247, read-out: MIC
# [9] = Enterococcus faecalis, read-out: MIC
# [10] = Enterococcus faecalis, ATCC29212, E. faecalis ATCC 29212, read-out: MIC
# [11] = Staphylococcus aureus, ATCC29213, S. aureus ATCC 29213, read-out: MIC
# [12] = Streptococcus pyogenes, ATCC19615, S. pyogenes ATCC 19615, read-out: MIC
# [13] = Streptococcus pneumoniae, MMX3028CERMB, read-out: MIC
# [14] = Escherichia coli, ATCC25922, E. coli ATCC 25922, read-out: MIC
# [15] = Streptococcus pneumoniae, MMX3031CMEFA, read-out: MIC
# [16] = Streptococcus pneumoniae, ATCC49619, S. pneumoniae ATCC 49619, read-out: MIC
# [17] = Staphylococcus aureus, MP549MSRA, S. aureus MP-549 msrA
Structure (SMILES),MIC (H. influenzae ATCC 49247; H. influenzae ATCC 49247) [µg/mL],MIC (E. faecalis ATCC 29212; E. faecalis ATCC 29212) [µg/mL],MIC (S. aureus ATCC 29213; S. aureus ATCC 29213) [µg/mL],MIC (S. pyogenes ATCC 19615; S. pyogenes ATCC 19615) [µg/mL],MIC (E. coli ATCC 25922; E. coli ATCC 25922) [µg/mL],MIC (E. coli MP-9 ΔTolC; E. coli MP-9 ΔTolC) [µg/mL],MIC (K. pneumoniae ATCC 10031; K. pneumoniae ATCC 10031) [µg/mL],MIC (S. aureus MP-549 msrA; S. aureus MP-549 msrA) [µg/mL],MIC ([5]; E. coli MP-74 LptD mutant) [µg/mL],MIC (S. aureus MMX 3035 cErmA; [6]) [µg/mL],"MIC [1, 7] [µg/mL]",MIC (H. influenzae ATCC 49247; [8]) [µg/mL],"MIC [2, 9] [µg/mL]",MIC (E. faecalis ATCC 29212; [10]) [µg/mL],MIC (S. aureus ATCC 29213; [11]) [µg/mL],MIC (S. pyogenes ATCC 19615; [12]) [µg/mL],"MIC [3, 13] [µg/mL]",MIC (E. coli ATCC 25922; [14]) [µg/mL],MIC (E. coli MP-9 ΔTolC; Escherichia coli) [µg/mL],"MIC [4, 15] [µg/mL]",further results
CCN1CCN(c2cc3c(cc2F)c(=O)c(C(=O)O)cn3C2CC2)CC1 [Enrofloxacin],–,–,–,–,–,–,–,–,–,–,–,–,–,–,–,–,–,–,–,–,"MIC (H. influenzae ATCC 49247; Haemophilus influenzae, ATCC49247, H. influenzae HAV#007, ATCC 49247, read-out: MIC): ≤ 0.06 µg/mL; MIC (E. coli LptD): ≤ 0.06 µg/mL; MIC (E. faecalis ATCC 29212; Enterococcus faecalis, ATCC29212, E. faecalis HAV#005, ATCC 29212, read-out: MIC): 0.5 µg/mL; MIC (S. aureus ATCC 29213; Staphylococcus aureus, ATCC29213, S. aureus HAV#001, ATCC 29213, MP-549, read-out: MIC): 0.125 µg/mL; MIC (S. pyogenes ATCC 19615; Streptococcus pyogenes, ATCC19615, S. pyogenes HAV#004, ATCC 19615, read-out: MIC): 0.25 µg/mL; MIC (E. coli ATCC 25922; Escherichia coli, ATCC25922, E. coli HAV#006, ATCC 25922, read-out: MIC): ≤ 0.06 µg/mL; MIC (K. pneumoniae ATCC 10031; Klebsiella pneumoniae, ATCC10031, K. pneumoniae HAV#008, ATCC 10031, read-out: MIC): ≤ 0.06 µg/mL; MIC (S. pneumoniae ATCC 49619; Streptococcus pneumoniae, ATCC49619, S. pneumoniae HAV#003, ATCC 49619, read-out: MIC): 0.25 µg/mL; MIC (E. coli ΔTolC): ≤ 0.06 µg/mL; MIC (S. aureus MP-549 msrA; Staphylococcus aureus, MP549MSRA, S. aureus HAV#032, MP-549, MSR(A), read-out: MIC): 0.5 µg/mL; MIC (C. difficile ATCC 700057; Clostridioides difficile, ATCC700057, C. difficile HAV#011, ATCC 700057, read-out: MIC): 32 µg/mL; MIC (B. fragilis ATCC 25285; Bacteroides fragilis, ATCC25285, B. fragilis HAV#013, ATCC 25285, read-out: MIC): 2 µg/mL"
CSC1O[C@H]([C@H](NC(=O)[C@H]2NC[C@@H]3C[C@@H](C(C)C)CCO[C@H]32)[C@H](C)Cl)C(O)[C@@H](O)[C@H]1O (stereo partly shown) [FSA-512078a],8,0.25,0.06,0.02,32,2,1,0.06,4,–,–,–,–,–,–,–,–,–,–,–,MIC (S. aureus MMX 3035 cErmA): 32 µg/mL; MIC [1]: 8 µg/mL; MIC [2]: 32 µg/mL; MIC [3]: 8 µg/mL; MIC [4]: 0.03 µg/mL; MIC (S. pneumoniae ATCC 49619; S. pneumoniae ATCC 49619): 0.03 µg/mL; MIC (S. aureus BAA 977 iErmA; S. aureus BAA 977 iErmA): 0.06 µg/mL; MIC (C. difficile ATCC 700057; C. difficile ATCC 700057): 1 µg/mL; MIC (C. scindens ATCC 35704): 0.25 µg/mL; MIC (B. fragilis ATCC 25285; B. fragilis ATCC 25285): 1 µg/mL
CSC1O[C@H]([C@H](NC(=O)[C@H]2NC[C@@H]3C[C@H](C(C)C)CCO[C@H]32)[C@H](C)Cl)C(O)[C@@H](O)[C@H]1O (stereo partly shown) [FSA-512078b],32,0.5,0.5,≤0.12,128,4,4,0.25,16,–,–,–,–,–,–,–,–,–,–,–,–
CSC1O[C@H]([C@H](NC(=O)[C@@H]2[C@@H]3OCC[C@H](CC(C)C)C[C@H]3CN2C)[C@H](C)Cl)CC(O)[C@H]1O (stereo partly shown) [FSA-513003a],–,–,–,–,–,–,–,–,–,16,8,2,8,0.12,0.12,0.06,8,32,1,≤ 0.06,"MIC (S. pneumoniae ATCC 49619; [16]): 0.06 µg/mL; MIC (S. aureus BAA 977 iErmA; Staphylococcus aureus, BAA977): 0.12 µg/mL; MIC (S. aureus MP-549 msrA; [17]): 0.12 µg/mL; MIC ([5]; Escherichia coli): 2 µg/mL"
CSC1O[C@H]([C@H](NC(=O)[C@H]2NC[C@@H]3C[C@@H](CC(C)C)CCO[C@H]32)[C@H](C)Cl)CC(O)[C@H]1O (stereo partly shown) [FSA-513018a],–,–,–,–,–,–,–,–,–,8,0.5,2,2,≤ 0.06,≤ 0.06,≤ 0.06,0.5,16,0.5,≤ 0.06,"MIC (S. pneumoniae ATCC 49619; [16]): ≤ 0.06 µg/mL; MIC (S. aureus BAA 977 iErmA; Staphylococcus aureus, BAA977): ≤ 0.06 µg/mL; MIC (S. aureus MP-549 msrA; [17]): ≤ 0.06 µg/mL; MIC ([5]; Escherichia coli): 2 µg/mL"

# — patent US20230203081A1, “LINCOSAMIDE ANTIBIOTICS AND USES THEREOF” (President and Fellows of Harvard College, priority 2020, published 2023)
